Several values for one entry are separate records, joined by “and”; a condition that tells them apart may be missing. Equal entries are not always repeated. Numbers after ± are expanded uncertainties.
Assays:
[1] = xn = mol fraction of the nth substance listed; details: x2 = 0; for mass density / speed of sound / viscosity: 101 kPa, Liquid
[2] = refractive index (Na D-line) (dimensionless); xn = mol fraction of the nth substance listed; details: 101 kPa, Liquid, x2 = 0
[3] = for mass density / speed of sound / viscosity: Liquid
[4] = refractive index (Na D-line) (dimensionless); details: 101.33 kPa, Liquid

SMILES	surface tension liquid-gas ([1]; 303.15 K)	mass density ([1]; 303.15 K)	speed of sound ([1]; 303.15 K)	viscosity ([1]; 303.15 K)	surface tension liquid-gas ([1]; 313.15 K)	surface tension liquid-gas ([3]; 303.15 K)	mass density ([3]; 303.15 K, 101 kPa)	speed of sound ([3]; 303.15 K, 101 kPa)	viscosity ([3]; 303.15 K, 101 kPa)	surface tension liquid-gas ([3]; 313.15 K)	mass density ([3]; 313.15 K, 101 kPa)	speed of sound ([3]; 313.15 K, 101 kPa)	viscosity ([3]; 313.15 K, 101 kPa)	surface tension liquid-gas ([3]; 323.15 K)	mass density ([3]; 323.15 K, 101 kPa)	speed of sound ([3]; 323.15 K, 101 kPa)	viscosity ([3]; 323.15 K, 101 kPa)	refractive index ([4]; 303.15 K)	refractive index ([4]; 313.15 K)	refractive index ([4]; 323.15 K)	other results
O=[N+]([O-])c1ccccc1 [nitrobenzene] + CC(=O)CC(C)(C)O	40.9 ± 1.1 mN/m	1200 ± 10 kg/m3	1413 ± 6 m/s	1.617 ± 0.076 mPa·s	38.24 ± 1.1 mN/m																mass density ([1]; 313.15 K): 1196 ± 11 kg/m3; speed of sound ([1]; 313.15 K): 1318 ± 6 m/s; viscosity ([1]; 313.15 K): 1.465 ± 0.069 mPa·s; surface tension liquid-gas ([1]; 323.15 K): 36.47 ± 1 mN/m; mass density ([1]; 323.15 K): 1185 ± 12 kg/m3; speed of sound ([1]; 323.15 K): 1221 ± 5 m/s; viscosity ([1]; 323.15 K): 1.343 ± 0.064 mPa·s; refractive index ([2]; 303.15 K): 1.5504 ± 0.005; refractive index ([2]; 313.15 K): 1.5476 ± 0.005; refractive index ([2]; 323.15 K): 1.5435 ± 0.005
O=[N+]([O-])c1ccccc1 [nitrobenzene]						40.9 ± 1.1 mN/m	1200 ± 10 kg/m3	1413 ± 6 m/s	1.617 ± 0.076 mPa·s	38.24 ± 1.1 mN/m	1196 ± 11 kg/m3	1318 ± 6 m/s	1.465 ± 0.069 mPa·s	36.47 ± 1 mN/m	1185 ± 12 kg/m3	1221 ± 5 m/s	1.343 ± 0.064 mPa·s	1.5504 ± 0.005	1.5476 ± 0.005	1.5435 ± 0.005	
CCc1ccccc1 [ethylbenzene]						30.01 ± 0.86 mN/m	867 ± 3.9 kg/m3	1335 ± 6 m/s	0.577 ± 0.047 mPa·s	29.04 ± 0.83 mN/m	842 ± 3.9 kg/m3	1289 ± 6 m/s	0.5914 ± 0.048 mPa·s	28.12 ± 0.81 mN/m	832.1 ± 4.1 kg/m3	1204 ± 5 m/s	0.4841 ± 0.041 mPa·s	1.4985 ± 0.0026	1.4901 ± 0.0026	1.4821 ± 0.0026	
CCc1ccccc1 [ethylbenzene] + CC(=O)CC(C)(C)O	30.01 ± 0.86 mN/m	867 ± 3.9 kg/m3	1335 ± 6 m/s	0.577 ± 0.047 mPa·s	29.04 ± 0.83 mN/m																mass density ([1]; 313.15 K): 842 ± 3.9 kg/m3; speed of sound ([1]; 313.15 K): 1289 ± 6 m/s; viscosity ([1]; 313.15 K): 0.5914 ± 0.048 mPa·s; surface tension liquid-gas ([1]; 323.15 K): 28.12 ± 0.81 mN/m; mass density ([1]; 323.15 K): 832.1 ± 4.1 kg/m3; speed of sound ([1]; 323.15 K): 1204 ± 5 m/s; viscosity ([1]; 323.15 K): 0.4841 ± 0.041 mPa·s; refractive index ([2]; 303.15 K): 1.4985 ± 0.0026; refractive index ([2]; 313.15 K): 1.4901 ± 0.0026; refractive index ([2]; 323.15 K): 1.4821 ± 0.0026
CC(=O)CC(C)(C)O [4-hydroxy-4-methylpentan-2-one]						29.44 ± 0.85 mN/m	936 ± 7.8 kg/m3	1256 ± 6 m/s	2.89 ± 0.13 mPa·s	28.92 ± 0.84 mN/m	912 ± 8.3 kg/m3	1183 ± 5 m/s	2.791 ± 0.13 mPa·s	28.12 ± 0.82 mN/m and 27.12 ± 0.8 mN/m	901 ± 8.9 kg/m3	1121 ± 5 m/s	2.67 ± 0.12 mPa·s	1.4239 ± 0.005	1.4198 ± 0.005	1.4151 ± 0.005	mass density ([3]; 293.15 K, 101 kPa): 938 ± 7 kg/m3; viscosity ([3]; 293.15 K, 101 kPa): 2.89 ± 0.13 mPa·s
Cc1ccccc1 [toluene]																					viscosity ([3]; 298.15 K, 101.33 kPa, Capillary tube (Ostwald / Ubbelohde) method): 0.555 ± 0.0042 mPa·s; mass density ([3]; 298.15 K, 101.33 kPa, Pycnometric method): 862.4 ± 1 kg/m3

Source: the NIST ThermoML archive (doi:10.1021/je8002699)
